Reference: US8338451B2, “Polysubstituted derivatives of 2-heteroaryl-6-phenylimidazo[1,2-a]pyridines, and preparation and therapeutic use thereof” (Sanofi, priority 2008, dated 2012)

Molecular target: T1, mouse Nurr1 receptor (Mus musculus, UniProt Q06219)
T1 construct: a cell line (N2A) endogenously expressing the mouse Nurr1 receptor; host or cells: Neuro-2A (N2A) mouse neuroblastoma cells stably transfected with 8NBRE-luciferase
Test: In vitro activity on N2A cells: NBRE-luciferase reporter (NOT/Nurr1 modulation)
Format: cell-based
Conditions: N2A (Neuro-2A) cells stably transfected with 8NBRE-luciferase, 24 hours incubation
Experimental: Evaluation of the In Vitro Activity on N2A Cells The activity of the compounds according to the invention was evaluated on a cell line (N2A) endogenously expressing the mouse Nurr1 receptor and stably transfected with the NOT binding response element (NBRE) coupled to the luciferase reporter gene. The EC50 values are between 0.01 and 10 μM. The tests were carried out according to the procedure described below. The Neuro-2A cell line comes from a standard commercial source (ATCC). The Neuro-2A clone was obtained from a spontaneous tumour originating from a mouse A albino strain, by R. J Klebe et el. This Neuro-2A line is then stably transfected with 8NBRE-luciferase. The N2A-8NBRE cells are cultured to confluence in 75 cm^2 culture flasks containing DMEM supplemented with 10% of foetal calf serum, 4.5 g/l of glucose and 0.4 mg/ml of geneticin. After one week of culture, the cells are recovered with 0.25% trypsin for 30 seconds, and then resuspended in DMEM without phenol red, containing 4.5 g/l of glucose and 10% of Hyclone defatted serum, and deposited in white, transparent-bottom 96-well plates. The cells are deposited at a rate of 60 000 per well in 75 μl for 24 hours before the addition of the products. […] On the day of the measurement, an equivalent volume (100 μl) of Steadylite is added to each well, followed by a waiting period of 30 minutes in order to obtain complete lysis of the cells and maximum production of the signal. The plates are then measured in a microplate luminescence counter after having been sealed with an adhesive film. […] Each product concentration is diluted beforehand in culture medium before incubation with the cells thus containing a final concentration of 0.625% of DMSO.

T1 sequence (Q06219 whole entry): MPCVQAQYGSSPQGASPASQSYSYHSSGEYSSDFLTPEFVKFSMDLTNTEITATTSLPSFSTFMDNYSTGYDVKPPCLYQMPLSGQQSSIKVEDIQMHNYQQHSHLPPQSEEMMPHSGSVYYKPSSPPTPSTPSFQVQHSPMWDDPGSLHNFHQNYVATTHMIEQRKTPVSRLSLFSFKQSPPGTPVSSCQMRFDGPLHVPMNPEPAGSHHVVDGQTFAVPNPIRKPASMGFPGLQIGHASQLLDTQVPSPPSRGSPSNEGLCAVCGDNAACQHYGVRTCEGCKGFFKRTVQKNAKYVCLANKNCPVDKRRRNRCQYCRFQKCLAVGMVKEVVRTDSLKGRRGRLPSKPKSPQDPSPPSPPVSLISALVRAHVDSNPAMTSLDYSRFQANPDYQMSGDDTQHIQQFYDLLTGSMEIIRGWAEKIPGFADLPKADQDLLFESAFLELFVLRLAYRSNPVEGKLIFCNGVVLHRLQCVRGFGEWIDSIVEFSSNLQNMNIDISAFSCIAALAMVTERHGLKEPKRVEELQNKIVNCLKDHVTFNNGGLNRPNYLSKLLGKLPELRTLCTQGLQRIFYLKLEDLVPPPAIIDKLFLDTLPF

SMILES	EC50 [nM]
CC(C)(O)c1cccc(-c2ccc3nc(-c4ccccn4)cn3c2)c1 [Compound 50, 2-[3-(2-pyridin-2-ylimidazo[1,2-a]pyridin-6-yl)phenyl]propan-2-ol]	202
OCc1cccc(-c2ccc3nc(-c4cccnc4)cn3c2)c1 [Compound 7]	1.6
Cc1cc(-c2cn3cc(-c4cccc(C(C)(C)O)c4)ccc3n2)no1 [Compound 86, 2-{3-[2-(5-methylisoxazol-3-yl)imidazo[1,2-a]pyridin-6-yl]phenyl}propan-2-ol]	71
OCc1ccc(-c2ccc3nc(-c4coc5ccccc45)cn3c2)cc1 [Compound 24, [4-[2-(benzofuran-3-yl)imidazo[1,2-a]pyridin-6-yl]phenyl]methanol]	50

Second part, the compound after the results:

EC50 [nM]	SMILES
0.9	OCc1cccc(-c2ccc3nc(-c4ccc5c(c4)OCO5)cn3c2)c1 [Compound 6, {3-[2-(1,3-benzodioxol-5-yl)imidazo[1,2-a]pyridin-6-yl]phenyl}methanol]
20	OCc1c(F)cccc1-c1ccc2nc(-c3cccs3)cn2c1 [Compound 68, [2-fluoro-6-(2-thien-2-ylimidazo[1,2-a]pyridin-6-yl)phenyl]methanol]
5	OCc1c(F)ccc(-c2ccc3nc(-c4cc5ccccc5o4)cn3c2)c1F [Compound 79, [3-(2-benzofuran-2-ylimidazo[1,2-a]pyridin-6-yl)-2,6-difluorophenyl]methanol]
